By pIC50 is commonly meant the negative decadic logarithm of the IC50, by convention in mol/L.

The structures appear in SMILES notation. pIC50: −log10 of the molar value.

T1 sequence (P13612 34-1032): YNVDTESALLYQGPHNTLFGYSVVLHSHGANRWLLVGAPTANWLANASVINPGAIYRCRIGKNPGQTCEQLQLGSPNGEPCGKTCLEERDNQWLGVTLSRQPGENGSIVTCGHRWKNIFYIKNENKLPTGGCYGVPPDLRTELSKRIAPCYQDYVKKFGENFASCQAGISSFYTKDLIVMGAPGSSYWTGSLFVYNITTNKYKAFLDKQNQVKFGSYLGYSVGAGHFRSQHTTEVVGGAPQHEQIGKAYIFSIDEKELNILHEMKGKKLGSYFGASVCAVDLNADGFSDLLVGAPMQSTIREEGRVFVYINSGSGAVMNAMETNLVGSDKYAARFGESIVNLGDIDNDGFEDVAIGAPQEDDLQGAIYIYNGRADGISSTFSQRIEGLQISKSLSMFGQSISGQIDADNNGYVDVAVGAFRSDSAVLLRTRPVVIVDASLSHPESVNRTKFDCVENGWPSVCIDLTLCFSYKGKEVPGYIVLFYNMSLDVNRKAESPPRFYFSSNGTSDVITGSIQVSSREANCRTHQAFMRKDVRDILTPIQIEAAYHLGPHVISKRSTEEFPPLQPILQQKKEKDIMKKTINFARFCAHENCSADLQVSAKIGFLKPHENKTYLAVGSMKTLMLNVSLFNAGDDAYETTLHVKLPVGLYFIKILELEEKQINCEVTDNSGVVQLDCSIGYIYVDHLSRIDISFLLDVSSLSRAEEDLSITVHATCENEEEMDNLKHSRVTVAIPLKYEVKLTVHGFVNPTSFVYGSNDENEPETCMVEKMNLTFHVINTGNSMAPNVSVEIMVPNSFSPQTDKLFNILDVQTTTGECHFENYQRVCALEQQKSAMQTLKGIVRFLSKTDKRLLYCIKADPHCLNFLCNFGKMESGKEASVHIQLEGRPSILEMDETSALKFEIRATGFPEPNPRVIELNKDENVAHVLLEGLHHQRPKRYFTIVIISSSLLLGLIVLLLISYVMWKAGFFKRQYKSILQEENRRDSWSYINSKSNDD
T1 sequence (P05556 21-798): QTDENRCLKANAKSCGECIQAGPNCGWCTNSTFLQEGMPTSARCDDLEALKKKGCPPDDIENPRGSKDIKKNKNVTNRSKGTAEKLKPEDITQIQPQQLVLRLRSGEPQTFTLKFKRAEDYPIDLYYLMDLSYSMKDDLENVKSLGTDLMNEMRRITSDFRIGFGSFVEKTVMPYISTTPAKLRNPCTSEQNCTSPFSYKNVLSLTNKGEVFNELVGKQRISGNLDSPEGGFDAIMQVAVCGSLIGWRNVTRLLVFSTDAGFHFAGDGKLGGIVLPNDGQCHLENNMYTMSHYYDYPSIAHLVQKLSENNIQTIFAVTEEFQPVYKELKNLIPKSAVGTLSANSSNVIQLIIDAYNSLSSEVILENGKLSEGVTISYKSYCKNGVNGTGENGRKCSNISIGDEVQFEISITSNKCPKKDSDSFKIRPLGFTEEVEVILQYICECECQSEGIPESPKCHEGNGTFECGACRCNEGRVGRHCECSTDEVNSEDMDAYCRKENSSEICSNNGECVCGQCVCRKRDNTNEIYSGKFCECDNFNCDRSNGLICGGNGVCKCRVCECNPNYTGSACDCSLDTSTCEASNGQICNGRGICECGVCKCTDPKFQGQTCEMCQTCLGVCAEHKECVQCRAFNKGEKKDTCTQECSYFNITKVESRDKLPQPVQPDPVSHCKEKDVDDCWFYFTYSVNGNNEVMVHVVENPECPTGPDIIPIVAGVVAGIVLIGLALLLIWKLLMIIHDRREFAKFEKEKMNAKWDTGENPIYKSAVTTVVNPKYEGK

The first test has as its target T1, α4β1 integrin (Homo sapiens, UniProt P05556+P13612).
T1 construct: endogenous in cells; host or cells: Ramos cells
The test is described as follows: Adhesion of calcein-labeled Ramos cells to CS1 (fibronectin) peptide conjugated ovalbumin. It counts as cell-based. Conditions: Table 3; Ramos cell adhesion to CS1 conjugated ovalbumin, 30 minutes at 37° C. The gist of the method: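 Calcein AM-labelled Ramos cells (2.5×10^5/well) with compound, up to 100 μM, added to plates coated with CS1 peptide–ovalbumin (0.5 μg/ml) and blocked with 3% BSA. Binding buffer TBS pH 7.5 with 1 mM each MgCl2, CaCl2, MnCl2; 30 min, 37 °C. After washes, adherent cells lysed and read fluorometrically; […].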
On to `Cc1ccc([C@H](CC(=O)O)NC(=O)Nc2c(-c3ccccc3)ccn(Cc3ccccc3Cl)c2=O)cc1` [(3S)-3-{[({1-[(2-chlorophenyl)methyl]-2-oxo-4-phenyl-1,2-dihydro-3-pyridinyl}amino)carbonyl]amino}-3-(4-methylphenyl)propanoic acid], for which the pIC50 was 8.00.

`Cc1ccc([C@H](CC(=O)O)NC(=O)Nc2c(NC(C)(C)C)ccn(Cc3ccccc3Cl)c2=O)cc1` [(3S)-3-{[({1-[(2-chlorophenyl)methyl]-4-[(1,1-dimethylethyl)amino]-2-oxo-1,2-dihydro-3-pyridinyl}amino)carbonyl]amino}-3-(4-methylphenyl)propanoic acid]: the negative logarithm of the IC50 (pIC50) was 8.52.

Take `CCc1ccn(Cc2ccccc2Cl)c(=O)c1NC(=O)N[C@@H](CC(=O)O)c1ccc(C)cc1` [(3S)-3-{[({1-[(2-chlorophenyl)methyl]-4-ethyl-2-oxo-1,2-dihydro-3-pyridinyl}amino)carbonyl]amino}-3-(4-methylphenyl)propanoic acid]: the pIC50 is 8.00.

As for `Cc1cc(C)cc([C@H](CC(=O)O)NC(=O)Nc2c(O)ccn(Cc3ccccc3Cl)c2=O)c1` [(3S)-3-{[({1-[(2-chlorophenyl)methyl]-4-hydroxy-2-oxo-1,2-dihydro-3-pyridinyl}amino)carbonyl]amino}-3-(3,5-dimethylphenyl)propanoic acid], the negative-log IC50 (pIC50) is 7.82.

For `Cc1cccc([C@H](CC(=O)O)NC(=O)Nc2c(O)ccn(Cc3ccccc3Cl)c2=O)c1` [(3S)-3-{[({1-[(2-chlorophenyl)methyl]-4-hydroxy-2-oxo-1,2-dihydro-3-pyridinyl}amino)carbonyl]amino}-3-(3-methylphenyl)propanoic acid], the pIC50 was 7.70.

On to `COc1cccc([C@H](CC(=O)O)NC(=O)Nc2c(O)ccn(Cc3ccccc3Cl)c2=O)c1` [(3S)-3-{[({1-[(2-chlorophenyl)methyl]-4-hydroxy-2-oxo-1,2-dihydro-3-pyridinyl}amino)carbonyl]amino}-3-[3-(methyloxy)phenyl]propanoic acid], for which the negative logarithm of the IC50 (pIC50) was 8.30.

`O=C(O)C[C@H](NC(=O)Nc1c(O)ccn(Cc2ccccc2Cl)c1=O)c1cccc(C(F)(F)F)c1` [(3S)-3-{[({1-[(2-chlorophenyl)methyl]-4-hydroxy-2-oxo-1,2-dihydro-3-pyridinyl}amino)carbonyl]amino}-3-[3-(trifluoromethyl)phenyl]propanoic acid]: the negative logarithm of the IC50 (pIC50) is 7.70.

With `COc1ccc([C@H](CC(=O)O)NC(=O)Nc2c(O)ccn(Cc3ccccc3Cl)c2=O)cc1C` [(3S)-3-{[({1-[(2-chlorophenyl)methyl]-4-hydroxy-2-oxo-1,2-dihydro-3-pyridinyl}amino)carbonyl]amino}-3-[3-methyl-4-(methyloxy)phenyl]propanoic acid], the pIC50 was 8.10.

As for `COc1ccc([C@H](CC(=O)O)NC(=O)Nc2c(O)ccn(Cc3ccccc3Cl)c2=O)cc1` [(3S)-3-{[({1-[(2-chlorophenyl)methyl]-4-hydroxy-2-oxo-1,2-dihydro-3-pyridinyl}amino)carbonyl]amino}-3-[4-(methyloxy)phenyl]propanoic acid], the negative-log IC50 (pIC50) was 8.30.

As for `O=C(O)C[C@H](NC(=O)Nc1c(O)ccn(Cc2ccccc2Cl)c1=O)c1ccccc1` [(3S)-3-{[({1-[(2-chlorophenyl)methyl]-4-hydroxy-2-oxo-1,2-dihydro-3-pyridinyl}amino)carbonyl]amino}-3-phenylpropanoic acid], the pIC50 is 8.00.

In the case of `Cc1ccc([C@H](CC(=O)O)NC(=O)Nc2c(O)cc(C)n(Cc3ccccc3Cl)c2=O)cc1` [(3S)-3-{[({1-[(2-chlorophenyl)methyl]-4-hydroxy-6-methyl-2-oxo-1,2-dihydro-3-pyridinyl}amino)carbonyl]amino}-3-(4-methylphenyl)propanoic acid], the pIC50 is 7.82.

On to `Cc1ccc([C@H](CC(=O)O)NC(=O)Nc2c(C)ccn(Cc3ccccc3Cl)c2=O)cc1C` [(3S)-3-{[({1-[(2-chlorophenyl)methyl]-4-methyl-2-oxo-1,2-dihydro-3-pyridinyl}amino)carbonyl]amino}-3-(3,4-dimethylphenyl)propanoic acid], for which the negative-log IC50 (pIC50) is 8.00.

With `Cc1ccc([C@H](CC(=O)O)NC(=O)Nc2c(C)ccn(Cc3ccccc3Cl)c2=O)cc1` [(3S)-3-{[({1-[(2-chlorophenyl)methyl]-4-methyl-2-oxo-1,2-dihydro-3-pyridinyl}amino)carbonyl]amino}-3-(4-methylphenyl)propanoic acid], the pIC50 is 8.30.

Regarding `COc1ccc([C@H](CC(=O)O)NC(=O)Nc2c(C)ccn(Cc3ccccc3Cl)c2=O)cc1` [(3S)-3-{[({1-[(2-chlorophenyl)methyl]-4-methyl-2-oxo-1,2-dihydro-3-pyridinyl}amino)carbonyl]amino}-3-[4-(methyloxy)phenyl]propanoic acid], the pIC50 was 8.52.

For the compound `Cc1ccc([C@H](CC(=O)O)NC(=O)Nc2cc(C)cn(Cc3ccccc3Cl)c2=O)cc1` [(3S)-3-{[({1-[(2-chlorophenyl)methyl]-5-methyl-2-oxo-1,2-dihydro-3-pyridinyl}amino)carbonyl]amino}-3-(4-methylphenyl)propanoic acid], the negative-log IC50 (pIC50) was 7.15.

Consider `Cc1ccc([C@H](CC(=O)O)NC(=O)Nc2c(O)ccn(Cc3ccccc3F)c2=O)cc1` [(3S)-3-{[({1-[(2-fluorophenyl)methyl]-4-hydroxy-2-oxo-1,2-dihydro-3-pyridinyl}amino)carbonyl]amino}-3-(4-methylphenyl)propanoic acid], for which the pIC50 was 7.52.

Regarding `Cc1ccc([C@H](CC(=O)O)NC(=O)Nc2c(N3CCC3)ccn(Cc3ccccc3Cl)c2=O)cc1` [(3S)-3-{[({4-(1-azetanyl)-1-[(2-chlorophenyl)methyl]-2-oxo-1,2-dihydro-3-pyridinyl}amino)carbonyl]amino}-3-(4-methylphenyl)propanoic acid], the pIC50 was 8.30.

The test is the same for the next values; noted with them: Table 4; Ramos cell adhesion to CS1 conjugated ovalbumin, 30 minutes at 37° C.
As for `O=C(O)C[C@H](NC(=O)Nc1cccn(Cc2ccccc2Cl)c1=O)c1ccc(O)cc1` [(3S)-3-{[({1-[(2-chlorophenyl)methyl]-2-oxo-1,2-dihydro-3-pyridinyl}amino)carbonyl]amino}-3-(4-hydroxyphenyl)propanoic acid], the pIC50 was 7.00.

The test is the same for the next values; noted with them: Table 7; Ramos cell adhesion to CS1 conjugated ovalbumin; dose required to give 50% inhibition.
Consider `CCN(c1cccc([C@H](CC(=O)O)NC(=O)Nc2c(O)c3c(n(Cc4c(C)cccc4Cl)c2=O)CCC3)c1)S(C)(=O)=O` [(3S)-3-{[({1-[(2-chloro-6-methylphenyl)methyl]-4-hydroxy-2-oxo-2,5,6,7-tetrahydro-1H-cyclopenta[b]pyridin-3-yl}amino)carbonyl]amino}-3-{3-[ethyl(methylsulfonyl)amino]phenyl}propanoic acid], for which the negative logarithm of the IC50 (pIC50) is 9.00.

As for `Cc1cccc(Cl)c1Cn1c2c(c(O)c(NC(=O)N[C@@H](CC(=O)O)c3cccc(N(C)S(C)(=O)=O)c3)c1=O)CCC2` [(3S)-3-{[({1-[(2-chloro-6-methylphenyl)methyl]-4-hydroxy-2-oxo-2,5,6,7-tetrahydro-1H-cyclopenta[b]pyridin-3-yl}amino)carbonyl]amino}-3-{3-[methyl(methylsulfonyl)amino]phenyl}propanoic acid], the pIC50 was 8.89.

`CCn1ccc2cc([C@H](CC(=O)O)NC(=O)Nc3c(O)c4c(n(Cc5ccccc5Cl)c3=O)CCC4)ccc21` [(3S)-3-{[({1-[(2-chlorophenyl)methyl]-4-hydroxy-2-oxo-2,5,6,7-tetrahydro-1H-cyclopenta[b]pyridin-3-yl}amino)carbonyl]amino}-3-(1-ethyl-1H-indol-5-yl)propanoic acid]: the pIC50 was 8.30.

For `CCN(CC)c1cccc([C@H](CC(=O)O)NC(=O)Nc2c(O)c3c(n(Cc4ccccc4Cl)c2=O)CCC3)c1` [(3S)-3-{[({1-[(2-chlorophenyl)methyl]-4-hydroxy-2-oxo-2,5,6,7-tetrahydro-1H-cyclopenta[b]pyridin-3-yl}amino)carbonyl]amino}-3-[3-(diethylamino)phenyl]propanoic acid], the negative logarithm of the IC50 (pIC50) was 8.52.

As to `O=C(O)C[C@H](NC(=O)Nc1c(O)c2c(n(Cc3ccccc3Cl)c1=O)CCC2)c1cccc(OC(F)F)c1` [(3S)-3-{[({1-[(2-chlorophenyl)methyl]-4-hydroxy-2-oxo-2,5,6,7-tetrahydro-1H-cyclopenta[b]pyridin-3-yl}amino)carbonyl]amino}-3-{3-[(difluoromethyl)oxy]phenyl}propanoic acid], the pIC50 was 8.30.

As to `CS(=O)(=O)Nc1cccc([C@H](CC(=O)O)NC(=O)Nc2c(O)c3c(n(Cc4ccccc4Cl)c2=O)CCC3)c1` [(3S)-3-{[({1-[(2-chlorophenyl)methyl]-4-hydroxy-2-oxo-2,5,6,7-tetrahydro-1H-cyclopenta[b]pyridin-3-yl}amino)carbonyl]amino}-3-{3-[(methylsulfonyl)amino]phenyl}propanoic acid], the negative-log IC50 (pIC50) was 8.52.

For `CCN(c1cccc([C@H](CC(=O)O)NC(=O)Nc2c(O)c3c(n(Cc4ccccc4Cl)c2=O)CCC3)c1)S(C)(=O)=O` [(3S)-3-{[({1-[(2-chlorophenyl)methyl]-4-hydroxy-2-oxo-2,5,6,7-tetrahydro-1H-cyclopenta[b]pyridin-3-yl}amino)carbonyl]amino}-3-{3-[ethyl(methylsulfonyl)amino]phenyl}propanoic acid], the negative-log IC50 (pIC50) was 9.00.

With `CN(c1cccc([C@H](CC(=O)O)NC(=O)Nc2c(O)c3c(n(Cc4ccccc4Cl)c2=O)CCC3)c1)S(C)(=O)=O` [(3S)-3-{[({1-[(2-chlorophenyl)methyl]-4-hydroxy-2-oxo-2,5,6,7-tetrahydro-1H-cyclopenta[b]pyridin-3-yl}amino)carbonyl]amino}-3-{3-[methyl(methylsulfonyl)amino]phenyl}propanoic acid], the pIC50 is 8.80.

`Cc1cn(Cc2ccccc2Cl)c(=O)c(NC(=O)N[C@@H](CC(=O)O)c2cccc(C(F)F)c2)c1O` [(3S)-3-{[({1-[(2-chlorophenyl)methyl]-4-hydroxy-5-methyl-2-oxo-1,2-dihydro-3-pyridinyl}amino)carbonyl]amino}-3-[3-(difluoromethyl)phenyl]propanoic acid]: the pIC50 is 7.70.

(Values after patent US6972296B2, “Carboxylic acid derivatives that inhibit the binding of integrins to their receptors” (Encysive Pharmaceuticals Inc., priority 1999, dated 2005).)
